Assay: Crystallinity of the complex by powder X-ray diffraction (XRD)
Format: physicochemical
Conditions: PANalytical X'Pert Pro, percent crystallinity
Description: “Crystallinity” means the degree to which a chemical entity is present in a crystalline form. This degree can be expressed in units such as percent crystallinity. X-Ray diffraction (“XRD”) techniques can be used to determine crystallinity of substances, including inventive substances. From an XRD spectra, the percent crystallinity may be calculated as: Percent crystallinity=(sum of net intensity)/(sum of observed intensity) where the sum of net intensity=integrated area of peak intensity above the baseline, and sum of observed intensity=integrated area of total peak intensity including sum of net intensity and integrated area under baseline. Additional information about use of XRD to determine percent crystallinity may be found in R. Jenkins et al., Introduction to X-Ray Powder Diffractometry, John Wiley & Sonds, Inc. (1996). Qualitative determination of crystallinity of the complex of Example 1 was conducted with PANalytical X'Pert Pro Powder X-ray Diffraction (XRD) System. […] The crystallinity of sodium lauryl sulfate was determined to be 32%, and the crystallinity of the physical mixture was determined to be 50%.

Q: For OCCC#Cc1nc(-c2ccc(F)cc2)c(-c2ccncc2)n1CCCc1ccccc1 [4-(4-Fluorophenyl)-2-(4-hydroxy-1-butynyl)-1-(3-phenylpropyl)-5-(4-pyridyl)imidazole], which crystallinity is on record?
A: 63%

Q: Which crystallinity does the source give for CCCCCCCCCCCCOS(=O)(=O)[O-].[Na+] [sodium lauryl sulfate] here?
A: 32%

— patent US20060134204A1, “Complexes made using low solubility drugs” (priority 2004, published 2006)
